{"source": "patent US20220273607A1", "about": "“METHODS OF USING MODIFIED […] TREAT CANCER” (NORTHWESTERN UNIVERSITY, priority 2019, published 2022)", "assay_type_in_all_cases": "cell-based", "key": {"HepG2 cells": {"test_system": "HepG2 cells", "experiment": "CellTiter Blue cytotoxicity with and without CD36 blocker SSO, HepG2", "settings": "different compound concentrations and different concentrations of SSO, FIG. 5"}, "HT-1080 cells": {"test_system": "HT-1080 cells", "experiment": "CellTiter Blue cytotoxicity with and without CD36 blocker SSO, HT-1080", "settings": "different compound concentrations and different concentrations of SSO, FIG. 3", "description": "The compound of Example 2 (ODDA-PTX) was compared with paclitaxel (PTX) in terms of cellular uptake. The comparison was carried out in HT-1080 cell culture using sulfosuccinimidyl oleate (SSO), a chemical blocker of fatty acid translocase/CD36:\nCytotoxicity of the compounds was evaluated using the CellTiter Blue (CTB) assay (Promega, cat G8081). Treatments of fatty acid-conjugates were prepared as 1000× serial stock dilutions in DMSO, then diluted into media for 1×, 0.1% DMSO treatment solutions. […]\nExpression of CD36 in HT-1080 was validated using flow cytometry and a fluorophore-conjugated CD36 antibody (CD36, eFluor 660, clone: eBioNL07 (NL07), eBioscience). […] Cells were resuspended in a final volume of 100 μL resuspension and analyzed via flow cytometry for presence of CD36. […]\nHT-1080 cells were plated in 96-well plates one day before treatment, at a seeding density of 10,000 cells/well. […] Fluorescence was measured at 590 nm with excitation at 560 nm using a Perkin Elmer EnSpire plate reader. Average background fluorescence readings of the experimental wells (three wells per treatment concentration). Viability was calculated as the average background-subtracted signal in a well compared to that of a negative control (cells treated with vehicle, […] in media). […]"}, "MCF-7 cells": {"test_system": "MCF-7 cells", "experiment": "CellTiter Blue cytotoxicity with and without CD36 blocker SSO, MCF-7", "settings": "different compound concentrations and different concentrations of SSO, FIG. 4"}}, "data": [{"smiles": "CC(=O)O[C@H]1C(=O)[C@@]2(C)[C@H]([C@H](OC(=O)c3ccccc3)[C@]3(O)C[C@H](OC(=O)[C@H](OC(=O)CCCCCCCCCCCCCCCCC(=O)O)[C@@H](NC(=O)c4ccccc4)c4ccccc4)C(C)=C1C3(C)C)[C@]1(OC(C)=O)CO[C@@H]1C[C@@H]2O", "note": "[ODDA-PTX, Paclitaxel-C18 Diacid Conjugate]", "values": [{"measurement": "change of percent viability of the cells with increasing concentration of the CD36 inhibitor", "setting": "HepG2 cells", "result": "increasing the concentration of the CD36 inhibitor correlates with increasing percent viability"}, {"measurement": "change of percent viability of the cells with increasing concentration of the CD36 inhibitor", "setting": "HT-1080 cells", "result": "increasing the concentration of the CD36 inhibitor correlates with increasing percent viability"}, {"measurement": "change of percent viability of the cells with increasing concentration of the CD36 inhibitor", "setting": "MCF-7 cells", "result": "increasing the concentration of the CD36 inhibitor correlates with increasing percent viability"}]}]}
